The values that follow come from US12384770B2, “Heterocyclic compound” (Takeda Pharmaceutical Company Limited, priority 2019, dated 2025).

SMILES strings stand for the structures.

One assay deals with T1, HDAC6 enzyme (Homo sapiens, UniProt Q9UBN7).
T1 construct: HDAC6 enzyme prepared by transducing full length HDAC6 gene into Sf-9 insect cells; GST; purchased SignalChem; host or cells: Sf-9 insect cells
T1 sequence (Q9UBN7 1-1215): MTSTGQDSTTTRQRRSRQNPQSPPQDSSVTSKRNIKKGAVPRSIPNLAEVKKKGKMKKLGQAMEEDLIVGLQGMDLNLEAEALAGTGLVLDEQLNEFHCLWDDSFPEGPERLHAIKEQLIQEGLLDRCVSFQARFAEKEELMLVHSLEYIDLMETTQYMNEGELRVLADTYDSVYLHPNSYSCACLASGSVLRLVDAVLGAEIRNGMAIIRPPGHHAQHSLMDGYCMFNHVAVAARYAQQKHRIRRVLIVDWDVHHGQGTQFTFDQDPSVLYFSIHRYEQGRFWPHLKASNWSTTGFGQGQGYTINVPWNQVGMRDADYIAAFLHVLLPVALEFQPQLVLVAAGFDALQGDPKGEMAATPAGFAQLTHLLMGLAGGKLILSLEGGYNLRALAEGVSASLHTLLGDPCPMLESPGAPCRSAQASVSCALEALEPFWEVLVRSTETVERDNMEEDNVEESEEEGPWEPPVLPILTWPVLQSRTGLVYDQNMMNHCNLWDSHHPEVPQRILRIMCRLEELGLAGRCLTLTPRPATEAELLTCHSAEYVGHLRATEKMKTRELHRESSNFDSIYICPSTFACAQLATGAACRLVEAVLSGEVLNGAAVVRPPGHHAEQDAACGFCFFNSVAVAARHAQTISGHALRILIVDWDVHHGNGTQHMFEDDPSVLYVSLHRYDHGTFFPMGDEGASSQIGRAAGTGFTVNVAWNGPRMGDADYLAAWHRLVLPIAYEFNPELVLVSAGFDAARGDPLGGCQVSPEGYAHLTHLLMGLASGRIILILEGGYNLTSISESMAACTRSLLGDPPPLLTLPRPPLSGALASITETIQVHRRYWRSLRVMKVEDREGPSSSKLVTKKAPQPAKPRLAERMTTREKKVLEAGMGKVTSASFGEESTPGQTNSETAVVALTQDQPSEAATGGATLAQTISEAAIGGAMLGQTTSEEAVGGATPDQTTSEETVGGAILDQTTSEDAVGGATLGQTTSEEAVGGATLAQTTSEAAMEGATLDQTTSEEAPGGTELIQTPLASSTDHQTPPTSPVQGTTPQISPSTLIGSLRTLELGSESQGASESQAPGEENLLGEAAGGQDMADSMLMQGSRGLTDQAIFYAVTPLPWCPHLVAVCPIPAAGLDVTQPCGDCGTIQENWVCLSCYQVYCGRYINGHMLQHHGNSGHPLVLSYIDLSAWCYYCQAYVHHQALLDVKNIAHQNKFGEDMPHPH
Description: HDAC6 enzyme inhibitory assay (HDAC-Glo I/II Assay kit). The settings on record: wells without enzyme = 100% inhibition. Type of assay: biochemical. The gist of the method:
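Full-length GST-purified HDAC6 from Sf-9 cells preincubated with compound 60 min at room temperature in Tris-HCl pH 7.5 buffer with MgCl2, KCl, NaCl, glutathione, Tween-20. Substrate-developer reaction 20 min, luminescence read; no-enzyme wells set as 100% inhibition.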
For the compound `O=C1c2cc(-c3nnc(C(F)F)o3)ccc2CN1[C@H](c1cccc(F)n1)[C@@H](O)c1cccc(F)c1` (single isomer, unassigned) [Example 90, 6-[5-(difluoromethyl)-1,3,4-oxadiazol-2-yl]-2-[(1R*,2S*)-2-(3-fluorophenyl)-1-(6-fluoropyridin-2-yl)-2-hydroxyethyl]-2,3-dihydro-1H-isoindol-1-one], the “HDAC6 inhibitory rate (%) (10 μM)” value was found to be 100%. Still for that read-out and setting: under `O=C1c2cc(-c3nnc(C(F)F)o3)ccc2CN1[C@H](c1cccnn1)[C@@H](O)c1ccc(F)c(F)c1` (single isomer, unassigned) [Example 109, 6-[5-(difluoromethyl)-1,3,4-oxadiazol-2-yl]-2-[(1R*,2S*)-2-(3,4-difluorophenyl)-2-hydroxy-1-(pyridazin-3-yl)ethyl]-2,3-dihydro-1H-isoindol-1-one] stands 100%.

The same assay, now with this note: wells without enzyme = 100% inhibition, 10 µM.
On to `O=C1c2cc(-c3nnc(C(F)F)o3)ccc2CN1[C@H](c1ccccn1)[C@@H](O)c1ccc(C(F)(F)F)cn1` (single isomer, unassigned) [Example 105, 6-[5-(difluoromethyl)-1,3,4-oxadiazol-2-yl]-2-{(1R*,2R*)-2-hydroxy-1-(pyridin-2-yl)-2-[5-(trifluoromethyl)pyridin-2-yl]ethyl}-2,3-dihydro-1H-isoindol-1-one], for which the “HDAC6 inhibitory rate (%) (10 μM)” value is listed as 99%. For `O=C1c2cc(-c3nnc(C(F)F)o3)ccc2CN1[C@H](C1CC1)[C@@H](O)c1cccc(F)n1` (single isomer, unassigned) [Example 80, 2-[(1R*,2R*)-1-cyclopropyl-2-(6-fluoropyridin-2-yl)-2-hydroxyethyl]-6-[5-(difluoromethyl)-1,3,4-oxadiazol-2-yl]-2,3-dihydro-1H-isoindol-1-one], the “HDAC6 inhibitory rate (%) (10 μM)” value amounted to 100%. Same read-out and setting: next, `O=C1c2cc(-c3nnc(C(F)F)o3)ccc2CN1[C@H](c1ncccn1)[C@@H](O)c1ccc(F)c(F)c1` (single isomer, unassigned) [Example 95, 6-[5-(difluoromethyl)-1,3,4-oxadiazol-2-yl]-2-[(1R*,2S*)-2-(3,4-difluorophenyl)-2-hydroxy-1-(pyrimidin-2-yl)ethyl]-2,3-dihydro-1H-isoindol-1-one]: 99%.

Staying with this assay, now noted: wells without enzyme = 100% inhibition, read-out: HDAC6 inhibitory rate (%) (10 μM).
As to `Cn1cc([C@H]([C@@H](O)c2ccc(F)cc2)N2Cc3ccc(-c4nnc(C(F)F)o4)cc3C2=O)cn1` (racemic) [Example 43, 6-[5-(difluoromethyl)-1,3,4-oxadiazol-2-yl]-2-[(1RS,2SR)-2-(4-fluorophenyl)-2-hydroxy-1-(1-methyl-1H-pyrazol-4-yl)ethyl]-2,3-dihydro-1H-isoindol-1-one], the inhibition at 10 µM was found to be 100%. On to `O=C1c2cc(-c3nnc(C(F)F)o3)ccc2CN1[C@H](C1CC1)[C@@H](O)c1cccc(F)c1` [Example 10, 2-[(1R,2S)-1-cyclopropyl-2-(3-fluorophenyl)-2-hydroxyethyl]-6-[5-(difluoromethyl)-1,3,4-oxadiazol-2-yl]-2,3-dihydro-1H-isoindol-1-one], for which the inhibition at 10 µM came out at 100%. As for `O=C1c2cc(-c3nnc(C(F)F)o3)ccc2CN1[C@H](c1ccccn1)[C@@H](O)c1cccc(F)c1` (single isomer, unassigned) [Example 61, 6-[5-(difluoromethyl)-1,3,4-oxadiazol-2-yl]-2-[(1R*,2S*)-2-(3-fluorophenyl)-2-hydroxy-1-(pyridin-2-yl)ethyl]-2,3-dihydro-1H-isoindol-1-one], the inhibition at 10 µM stood at 100%. The same measure, in the same setting: next, `O=C1c2cc(-c3nnc(C(F)F)o3)ccc2CN1[C@@H](c1ccccc1)[C@H](O)c1ccccc1` [Example 14, 6-[5-(difluoromethyl)-1,3,4-oxadiazol-2-yl]-2-[(1S,2R)-2-hydroxy-1,2-diphenylethyl]-2,3-dihydro-1H-isoindol-1-one]: 100%.

For `O=C1c2cc(-c3nnc(C(F)F)o3)ccc2CN1[C@H](c1cnccn1)[C@@H](O)c1cccc(F)c1` (single isomer, unassigned) [Example 100, 6-[5-(difluoromethyl)-1,3,4-oxadiazol-2-yl]-2-[(1R*,2S*)-2-(3-fluorophenyl)-2-hydroxy-1-(pyrazin-2-yl)ethyl]-2,3-dihydro-1H-isoindol-1-one], the inhibition at 10 µM was 100%.

Consider `O=C1c2cc(-c3nnc(C(F)F)o3)ccc2CN1[C@H](c1ncccn1)[C@@H](O)c1ccc(F)c(F)c1` (single isomer, unassigned) [Example 94, 6-[5-(difluoromethyl)-1,3,4-oxadiazol-2-yl]-2-[(1R*,2S*)-2-(3,4-difluorophenyl)-2-hydroxy-1-(pyrimidin-2-yl)ethyl]-2,3-dihydro-1H-isoindol-1-one], for which the inhibition at 10 µM stood at 100%. The same measure, in the same setting: next, `O=C1c2cc(-c3nnc(C(F)F)o3)ccc2CN1[C@H](c1ccc(F)cc1)[C@@H](O)c1ccc(F)nc1` (racemic) [Example 58, 6-[5-(difluoromethyl)-1,3,4-oxadiazol-2-yl]-2-[(1RS,2SR)-1-(4-fluorophenyl)-2-(6-fluoropyridin-3-yl)-2-hydroxyethyl]-2,3-dihydro-1H-isoindol-1-one]: 100%; `O=C1c2cc(-c3nnc(C(F)F)o3)ccc2CN1[C@H](c1ccccc1)[C@@H](O)c1ccc(F)cc1` (racemic) [Example 22, 6-[5-(difluoromethyl)-1,3,4-oxadiazol-2-yl]-2-[(1RS,2SR)-2-(4-fluorophenyl)-2-hydroxy-1-phenylethyl]-2,3-dihydro-1H-isoindol-1-one]: 99%; `O=C1c2cc(-c3nnc(C(F)F)o3)ccc2CN1[C@H](c1ccccc1C(F)(F)F)[C@@H](O)c1ccccn1` (racemic) [Example 39, 6-[5-(difluoromethyl)-1,3,4-oxadiazol-2-yl]-2-{(1RS,2RS)-2-hydroxy-2-(pyridin-2-yl)-1-[2-(trifluoromethyl)phenyl]ethyl}-2,3-dihydro-1H-isoindol-1-one]: 101%. Consider `O=C1c2cc(-c3nnc(C(F)F)o3)ccc2CN1[C@@H](c1ccccn1)[C@H](O)c1ccc(F)cn1` [Example 4, 6-[5-(difluoromethyl)-1,3,4-oxadiazol-2-yl]-2-[(1S,2S)-2-(5-fluoropyridin-2-yl)-2-hydroxy-1-(pyridin-2-yl)ethyl]-2,3-dihydro-1H-isoindol-1-one], for which the inhibition at 10 µM amounted to 100%. The same measure, in the same setting: next, `O=C1c2cc(-c3nnc(C(F)F)o3)ccc2CN1[C@H](c1cccnn1)[C@@H](O)c1ccc(Cl)cc1` (relative stereo) [Example 110, 2-[(1R*,2S)-2-(4-chlorophenyl)-2-hydroxy-1-(pyridazin-3-yl)ethyl]-6-[5-(difluoromethyl)-1,3,4-oxadiazol-2-yl]-2,3-dihydro-1H-isoindol-1-one]: 100%. With `O=C1c2cc(-c3nnc(C(F)F)o3)ccc2CN1[C@H](c1ccccn1)[C@@H](O)c1cccc(F)n1` [Example 7, 6-[5-(difluoromethyl)-1,3,4-oxadiazol-2-yl]-2-[(1R,2R)-2-(6-fluoropyridin-2-yl)-2-hydroxy-1-(pyridin-2-yl)ethyl]-2,3-dihydro-1H-isoindol-1-one], the inhibition at 10 µM was 102%. On to `O=C1c2cc(-c3nnc(C(F)F)o3)ccc2CN1[C@H](c1cc(F)c(F)c(F)c1)[C@@H](O)c1ccccn1` (racemic) [Example 15, 6-[5-(difluoromethyl)-1,3,4-oxadiazol-2-yl]-2-[(1RS,2RS)-2-hydroxy-2-(pyridin-2-yl)-1-(3,4,5-trifluorophenyl)ethyl]-2,3-dihydro-1H-isoindol-1-one], for which the inhibition at 10 µM turned out to be 99%.
